# Experimental data as given in patent publication US20070026402A1, “Genetic marker of response to atypical antipsychotics and antidepressants methods for use thereof” (priority 2003, published 2007).
# Entries after “also recorded” stand apart in the source; their conditions may differ.
# Legend:
# PTSD patients [1] = experiment: Discontinuation and adverse events during paroxetine treatment in PTSD; type: in vivo, human; settings: for Subjects with adverse events relating to anxiety, insomnia, headache or tremor / Subjects with erectile dysfunction, decreased libido or delayed ejaculation: group that discontinued
# Experimental: Sixty-five unrelated male Caucasian patients with the diagnosis of PTSD were recruited for study. All subjects were Vietnam combat veterans who had served in the Australian armed forces. None were being treated with psychotropic medication.
# After initial assessment, patients were medically examined and then were started on 20 mg/day of paroxetine for the first two weeks followed by a 40 mg/day dose for the remaining six weeks.
# Patient assessments were conducted blind to their DRD2 allelic status. In addition to their standard treatment, patients were monitored twice for adverse events. Drug compliance was checked by pill count. All participants provided written informed consent and were able to terminate treatment without prejudice. However, those terminating participation were asked to provide reasons for their withdrawal. Institutional ethics approval was obtained from the Greenslopes Private Hospital.
# PTSD patients [2] = experiment: General Health Questionnaire-28 (GHQ) outcome of paroxetine treatment in PTSD; type: in vivo, human; settings: for GHQ total score, baseline vs treatment: 8 weeks
# Source text: Sixty-five unrelated male Caucasian patients with the diagnosis of PTSD were recruited for study. All subjects were Vietnam combat veterans who had served in the Australian armed forces. None were being treated with psychotropic medication. […] confirmed by all patients exceeding the clinical cut-off score of 94 on the Mississippi Scale for combat-related posttraumatic stress disorder (Zatzick et al., 1997). The validity and reliability of the Mississippi scale ate well established in veterans (Keane et al., 1988). Patients then underwent clinical history taking by a psychiatrist or by a clinical nurse (EP). Demographic data and ethnic background were also obtained. […] The General Health Questionnaire-28 (GHQ) was administered at baseline (0-7 days on paroxetine) and at the end of treatment (8 weeks after commencement on paroxetine). This questionnaire measures four psychopathological factors particularly relevant to PTSD and its comorbid psychiatric conditions: somatic concerns (GHQ1), anxiety/insomnia (GHQ2), social dysfunction (GHQ3) and depression (GHQ4). The GHQ has been widely validated internationally as a means of detecting psychiatric […] sensitive to change (Ormel et al., 1989). The GHQ has utility as a follow-up measure of veteran mental health following exposure to combat (Deahl et al., 1994) and is sensitive to changes in combat-related PTSD symptoms (Ward, 1997). Information coded from the interviews, GHQ and genotyping results were entered into a computer database. Nominal data were analyzed by Yates corrected X^2 test and continuous data, with repeated measures, were analyzed by paired t-test or by analysis of variance. P values≦0.05 were considered statistically significant.
# PTSD = settings: compared to 32% with placebo; cited from earlier work
smiles,measurement,setting,value
CN1CCN(C2=Nc3cc(Cl)ccc3Nc3ccccc32)CC1 [Clozapine],Number of patients exceeding hyperprolactinemia cut-off levels,Serum prolactin; Clozapine and Olanzapine patients combined,7
same,Hyperprolactinemic patients as share of the sample,"Serum prolactin; Clozapine and Olanzapine patients combined, sample of 144",5%
same,Prolactin levels in A1+ compared to A1− allelic patients,Serum prolactin; P=0.04,more than two fold higher
Fc1ccc([C@@H]2CCNC[C@H]2COc2ccc3c(c2)OCO3)cc1 [paroxetine],Number of patients who discontinued treatment,PTSD patients [1]; A1+ (of 26),4
same,"Subjects with adverse events relating to anxiety, insomnia, headache or tremor",PTSD patients [1]; A1+,2
same,"Subjects with erectile dysfunction, decreased libido or delayed ejaculation",PTSD patients [1]; A1+,2
same,Number of patients who discontinued treatment,PTSD patients [1]; A1− (of 39),16
same,"Subjects with adverse events relating to anxiety, insomnia, headache or tremor",PTSD patients [1]; A1−,11
same,"Subjects with erectile dysfunction, decreased libido or delayed ejaculation",PTSD patients [1]; A1−,5
same,Number of patients who discontinued treatment,PTSD patients [1]; of the 65 patients who entered the study,20
same,GHQ3 (social dysfunction) subscale score over the course of treatment,PTSD patients [2]; A1+ allelic subjects,significant improvement
same,GHQ3 (social dysfunction) subscale score over the course of treatment,PTSD patients [2]; A1− allelic subjects,no such improvement
same,"GHQ total score, baseline vs treatment",PTSD patients [2]; A1− patients,no significant improvement; also recorded: did not
same,"GHQ total score, baseline vs treatment",PTSD patients [2]; total 45 patients,significant improvement
same,GHQ1 (somatic concerns) subscale score over the course of treatment,PTSD patients [2]; total patient group,not significantly reduced
same,GHQ2 (anxiety/insomnia) subscale score over the course of treatment,PTSD patients [2]; total patient group,significantly reduced
same,GHQ3 (social dysfunction) subscale score over the course of treatment,PTSD patients [2]; total patient group,significant improvement
same,GHQ4 (depression) subscale score during treatment,PTSD patients [2]; total patient group,significant improvement
CN[C@H]1CC[C@@H](c2ccc(Cl)c(Cl)c2)c2ccccc21 [sertraline],Responder rate,PTSD,53%
